Measurements from PubChem BioAssay (NCI).
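Where inhibition never reached the appropriate level, the endpoint shown equals the highest concentration tested. Otherwise, values were interpolated linearly from a five-concentration, 48-hour dose response in 96-well plates. TGI: concentration producing complete growth inhibition.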

Experiments:
Assay in all cases: growth of human tumour cells (NCI), 48 h
HOP-62 NSCLC = tested on: HOP-62 NSCLC
CAKI-1 renal = tested on: CAKI-1 renal
HCT-15 colon = tested on: HCT-15 colon
SF-295 CNS = tested on: SF-295 CNS
SNB-75 CNS = tested on: SNB-75 CNS
NCI-H23 lung = tested on: NCI-H23 lung
KM12 colon = tested on: KM12 colon
OVCAR-8 ovarian = tested on: OVCAR-8 ovarian
HCC-2998 colon = tested on: HCC-2998 colon
SK-MEL-2 melanoma = tested on: SK-MEL-2 melanoma
MDA-MB-435 = tested on: MDA-MB-435
DU-145 prostate = tested on: DU-145 prostate
A498 renal = tested on: A498 renal
UACC-257 melanoma = tested on: UACC-257 melanoma
TK-10 renal = tested on: TK-10 renal
K-562 leukemia = tested on: K-562 leukemia
CCRF-CEM leukemia = tested on: CCRF-CEM leukemia
U251 CNS = tested on: U251 CNS
MOLT-4 leukemia = tested on: MOLT-4 leukemia
SW-620 colon = tested on: SW-620 colon
PC-3 prostate = tested on: PC-3 prostate
NCI-H226 lung = tested on: NCI-H226 lung
HS 578T breast = tested on: HS 578T breast
MCF7 breast = tested on: MCF7 breast
MDA-N = tested on: MDA-N
SNB-19 CNS = tested on: SNB-19 CNS
EKVX NSCLC = tested on: EKVX NSCLC
SK-OV-3 ovarian = tested on: SK-OV-3 ovarian
T-47D breast = tested on: T-47D breast
HCT-116 colon = tested on: HCT-116 colon
NCI-H522 lung = tested on: NCI-H522 lung
SN12C renal = tested on: SN12C renal
SF-539 CNS = tested on: SF-539 CNS
786-0 renal = tested on: 786-0 renal
OVCAR-3 ovarian = tested on: OVCAR-3 ovarian
M14 melanoma = tested on: M14 melanoma
RPMI-8226 leukemia = tested on: RPMI-8226 leukemia
BT-549 breast = tested on: BT-549 breast
IGROV1 ovarian = tested on: IGROV1 ovarian
ACHN renal = tested on: ACHN renal
RXF 393 renal = tested on: RXF 393 renal
NCI-H460 lung = tested on: NCI-H460 lung
LOX IMVI melanoma = tested on: LOX IMVI melanoma
A549 NSCLC = tested on: A549 NSCLC
SF-268 CNS = tested on: SF-268 CNS
OVCAR-4 ovarian = tested on: OVCAR-4 ovarian
NCI/ADR-RES ovarian = tested on: NCI/ADR-RES ovarian
UACC-62 melanoma = tested on: UACC-62 melanoma
OVCAR-5 ovarian = tested on: OVCAR-5 ovarian
SK-MEL-5 melanoma = tested on: SK-MEL-5 melanoma
SK-MEL-28 melanoma = tested on: SK-MEL-28 melanoma
HT29 colon = tested on: HT29 colon
UO-31 renal = tested on: UO-31 renal
COLO 205 colon = tested on: COLO 205 colon
MDA-MB-231 breast = tested on: MDA-MB-231 breast
HL-60(TB) leukemia = tested on: HL-60(TB) leukemia
HOP-92 NSCLC = tested on: HOP-92 NSCLC

CC(C)CC1C(=O)OC(C)(C)OC1=O
TGI (HOP-62 NSCLC): > 100 µM
TGI (CAKI-1 renal): > 100 µM
TGI (HCT-15 colon): > 100 µM
TGI (SF-295 CNS): > 100 µM
TGI (SNB-75 CNS): > 100 µM
TGI (NCI-H23 lung): > 100 µM
TGI (KM12 colon): > 100 µM
TGI (OVCAR-8 ovarian): > 100 µM
TGI (HCC-2998 colon): > 100 µM
TGI (SK-MEL-2 melanoma): > 100 µM
TGI (MDA-MB-435): > 100 µM
TGI (DU-145 prostate): > 100 µM
TGI (A498 renal): > 100 µM
TGI (UACC-257 melanoma): > 100 µM
TGI (TK-10 renal): > 100 µM
TGI (K-562 leukemia): > 100 µM
TGI (CCRF-CEM leukemia): > 100 µM
TGI (U251 CNS): > 100 µM
TGI (MOLT-4 leukemia): > 100 µM
TGI (SW-620 colon): > 100 µM
TGI (PC-3 prostate): > 100 µM
TGI (NCI-H226 lung): > 100 µM
TGI (HS 578T breast): > 100 µM
TGI (MCF7 breast): > 100 µM
TGI (MDA-N): > 100 µM
TGI (SNB-19 CNS): > 100 µM
TGI (EKVX NSCLC): > 100 µM
TGI (SK-OV-3 ovarian): > 100 µM
TGI (T-47D breast): > 100 µM
TGI (HCT-116 colon): > 100 µM
TGI (NCI-H522 lung): > 100 µM
TGI (SN12C renal): > 100 µM
TGI (SF-539 CNS): > 100 µM
TGI (786-0 renal): > 100 µM
TGI (OVCAR-3 ovarian): > 100 µM
TGI (M14 melanoma): > 100 µM
TGI (RPMI-8226 leukemia): > 100 µM
TGI (BT-549 breast): > 100 µM
TGI (IGROV1 ovarian): > 100 µM
TGI (ACHN renal): > 100 µM
TGI (RXF 393 renal): > 100 µM
TGI (NCI-H460 lung): > 100 µM
TGI (LOX IMVI melanoma): > 100 µM
TGI (A549 NSCLC): > 100 µM
TGI (SF-268 CNS): > 100 µM
TGI (OVCAR-4 ovarian): > 100 µM
TGI (NCI/ADR-RES ovarian): > 100 µM
TGI (UACC-62 melanoma): > 100 µM
TGI (OVCAR-5 ovarian): > 100 µM
TGI (SK-MEL-5 melanoma): > 100 µM
TGI (SK-MEL-28 melanoma): > 100 µM
TGI (HT29 colon): > 100 µM
TGI (UO-31 renal): > 100 µM
TGI (COLO 205 colon): > 100 µM
TGI (MDA-MB-231 breast): > 100 µM

COC(=O)C1=CCC[C@H]2[C@@]1(COC(C)=O)CC[C@@H](C)[C@]2(C)CC(=O)c1ccoc1
TGI (CAKI-1 renal): > 50 µM
TGI (HCT-15 colon): 49.5 µM
TGI (SF-295 CNS): > 50 µM
TGI (SNB-75 CNS): > 50 µM
TGI (NCI-H23 lung): 47.2 µM
TGI (KM12 colon): > 50 µM
TGI (OVCAR-8 ovarian): > 50 µM
TGI (HCC-2998 colon): 37.5 µM
TGI (SK-MEL-2 melanoma): > 50 µM
TGI (MDA-MB-435): > 50 µM
TGI (DU-145 prostate): > 50 µM
TGI (A498 renal): > 50 µM
TGI (UACC-257 melanoma): > 50 µM
TGI (TK-10 renal): > 50 µM
TGI (CCRF-CEM leukemia): 25.3 µM
TGI (U251 CNS): > 50 µM
TGI (MOLT-4 leukemia): 31.8 µM
TGI (SW-620 colon): > 50 µM
TGI (PC-3 prostate): > 50 µM
TGI (NCI-H226 lung): > 50 µM
TGI (HS 578T breast): > 50 µM
TGI (MCF7 breast): > 50 µM
TGI (MDA-N): > 50 µM
TGI (SNB-19 CNS): > 50 µM
TGI (EKVX NSCLC): > 50 µM
TGI (HL-60(TB) leukemia): 24.5 µM
TGI (SK-OV-3 ovarian): > 50 µM
TGI (T-47D breast): 35.7 µM
TGI (HCT-116 colon): 30.4 µM
TGI (NCI-H522 lung): 22 µM
TGI (SN12C renal): > 50 µM
TGI (SF-539 CNS): 24.8 µM
TGI (786-0 renal): > 50 µM
TGI (OVCAR-3 ovarian): > 50 µM
TGI (M14 melanoma): > 50 µM
TGI (RPMI-8226 leukemia): 29.6 µM
TGI (BT-549 breast): 31.3 µM
TGI (IGROV1 ovarian): > 50 µM
TGI (ACHN renal): > 50 µM
TGI (RXF 393 renal): > 50 µM
TGI (NCI-H460 lung): > 50 µM
TGI (LOX IMVI melanoma): 24.7 µM
TGI (A549 NSCLC): > 50 µM
TGI (SF-268 CNS): > 50 µM
TGI (OVCAR-4 ovarian): > 50 µM
TGI (NCI/ADR-RES ovarian): > 50 µM
TGI (UACC-62 melanoma): 20.1 µM
TGI (OVCAR-5 ovarian): > 50 µM
TGI (SK-MEL-5 melanoma): 16.9 µM
TGI (HT29 colon): > 50 µM
TGI (UO-31 renal): > 50 µM
TGI (HOP-92 NSCLC): 37.8 µM
TGI (COLO 205 colon): 27.3 µM
TGI (MDA-MB-231 breast): > 50 µM
